{
  "source": "ChEMBL document CHEMBL3856276",
  "about": "“Design, Synthesis, and Biological Evaluation of Novel Tetrahydroprotoberberine Derivatives (THPBs) as Selective α1A-Adrenoceptor Antagonists” (J Med Chem, 2016)",
  "key": {"Rattus norvegicus": {"test_system": "Rattus norvegicus", "assay": "Inhibition of micturition frequency in po dosed Sprague-Dawley rat benign prostatic hyperplasia model administered 20 mins followed by distilled watering loading measured for 2 hrs", "type": "functional", "conditions": "read-out: MED"}, "[1]": {"biological_target": "T1, Alpha-1B adrenergic receptor (Homo sapiens, UniProt P35368)", "T1 sequence (P35368 whole entry)": "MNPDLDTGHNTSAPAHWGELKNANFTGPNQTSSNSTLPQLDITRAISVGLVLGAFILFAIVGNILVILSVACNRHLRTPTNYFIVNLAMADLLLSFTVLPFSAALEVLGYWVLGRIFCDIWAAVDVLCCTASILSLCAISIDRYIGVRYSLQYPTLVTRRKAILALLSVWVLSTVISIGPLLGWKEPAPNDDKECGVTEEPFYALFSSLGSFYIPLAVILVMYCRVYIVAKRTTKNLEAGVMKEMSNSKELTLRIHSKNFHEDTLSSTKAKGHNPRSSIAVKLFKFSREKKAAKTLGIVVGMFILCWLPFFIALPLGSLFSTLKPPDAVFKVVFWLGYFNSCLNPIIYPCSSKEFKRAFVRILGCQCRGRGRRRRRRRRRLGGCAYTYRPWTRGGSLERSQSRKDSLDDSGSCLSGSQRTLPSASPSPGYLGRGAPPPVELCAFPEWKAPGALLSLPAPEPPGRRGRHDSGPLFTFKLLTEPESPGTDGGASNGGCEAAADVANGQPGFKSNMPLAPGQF", "description": "Antagonist activity at human full-length N-terminal SNAP-tagged alpha1B adrenoceptor expressed in HEK293 cells assessed as inhibition of agonist-induced calcium mobilization preincubated for 10 mins followed by agonist addition by fluo-4 AM dye-based assay"}, "[2]": {"assay": "Tmax in rat at 10 mg/kg, iv", "type": "ADME, organism-based", "conditions": "in vivo"}, "[3]": {"biological_target": "T2, Alpha-1D adrenergic receptor (Homo sapiens, UniProt P25100)", "T2 sequence (P25100 whole entry)": "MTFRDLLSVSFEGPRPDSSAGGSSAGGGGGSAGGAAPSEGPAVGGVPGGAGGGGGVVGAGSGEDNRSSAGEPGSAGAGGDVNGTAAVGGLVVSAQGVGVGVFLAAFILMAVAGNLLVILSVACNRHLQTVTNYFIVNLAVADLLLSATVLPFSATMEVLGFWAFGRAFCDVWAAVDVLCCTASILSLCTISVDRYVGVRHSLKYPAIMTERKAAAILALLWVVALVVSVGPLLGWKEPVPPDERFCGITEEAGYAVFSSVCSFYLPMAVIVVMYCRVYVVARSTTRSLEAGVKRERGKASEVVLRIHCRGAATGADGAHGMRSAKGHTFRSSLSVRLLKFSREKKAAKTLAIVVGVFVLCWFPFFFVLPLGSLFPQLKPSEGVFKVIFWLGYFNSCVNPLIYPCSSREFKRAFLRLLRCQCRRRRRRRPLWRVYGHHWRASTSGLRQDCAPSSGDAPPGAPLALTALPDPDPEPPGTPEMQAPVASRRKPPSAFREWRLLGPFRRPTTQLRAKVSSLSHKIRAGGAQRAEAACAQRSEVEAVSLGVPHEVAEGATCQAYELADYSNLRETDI", "description": "Antagonist activity at human full-length N-terminal SNAP-tagged alpha1D adrenoceptor expressed in HEK293 cells assessed as inhibition of agonist-induced calcium mobilization preincubated for 10 mins followed by agonist addition by fluo-4 AM dye-based assay"}, "Homo sapiens": {"species_on_record": "Homo sapiens", "assay": "Selectivity ratio of IC50 for human full-length N-terminal SNAP-tagged alpha1D adrenoceptor to IC50 for human full-length N-terminal SNAP-tagged alpha1A adrenoceptor"}, "[4]": {"biological_target": "T3, Alpha-1A adrenergic receptor (Homo sapiens, UniProt P35348)", "T3 sequence (P35348 whole entry)": "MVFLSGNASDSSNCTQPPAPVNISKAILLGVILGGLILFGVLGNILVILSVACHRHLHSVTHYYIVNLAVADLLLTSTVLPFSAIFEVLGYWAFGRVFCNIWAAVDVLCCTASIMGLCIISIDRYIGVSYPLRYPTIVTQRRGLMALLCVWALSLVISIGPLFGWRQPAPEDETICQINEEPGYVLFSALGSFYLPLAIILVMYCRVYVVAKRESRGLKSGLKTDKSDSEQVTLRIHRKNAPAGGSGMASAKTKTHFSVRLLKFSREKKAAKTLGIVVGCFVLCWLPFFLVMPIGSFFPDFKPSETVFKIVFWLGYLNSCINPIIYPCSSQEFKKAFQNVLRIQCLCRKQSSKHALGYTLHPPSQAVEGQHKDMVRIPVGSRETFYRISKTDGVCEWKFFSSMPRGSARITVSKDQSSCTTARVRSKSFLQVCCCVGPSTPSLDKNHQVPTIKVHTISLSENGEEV", "description": "Antagonist activity at human full-length N-terminal SNAP-tagged alpha1A adrenoceptor expressed in HEK293 cells assessed as inhibition of agonist-induced calcium mobilization preincubated for 10 mins followed by agonist addition by fluo-4 AM dye-based assay"}},
  "data": [
    {"smiles": "COc1ccc2[nH]c3c(c2c1)C[C@H]1c2cc4c(cc2CCN1C3)OCO4", "values": [
      {"measurement": "minimal effective dose", "setting": "Rattus norvegicus", "value": 3, "unit": "mg/kg"},
      {"measurement": "IC50", "setting": "[1]", "value": "> 10000", "unit": "nM"},
      {"measurement": "Tmax", "setting": "[2]", "value": 15, "unit": "min"},
      {"measurement": "IC50", "setting": "[3]", "value": 251, "unit": "nM"},
      {"measurement": "Ratio IC50", "setting": "Homo sapiens", "value": 19.6},
      {"measurement": "IC50", "setting": "[4]", "value": 12.8, "unit": "nM"}
    ]}
  ]
}
